Reference: patent US6066655A, “4-phenyl-3-substituted 1,4-dihydropyridine esters” (Bayer Aktiengesellschaft, priority 1993, dated 2000)

Key:
[1] = tested on: PN 200-110 binding sites in the rat brain; test: Binding affinity for PN 200-110 (DHP) binding sites in the rat brain; details: for Selectivity: Ki (Heart) relative to Ki (Brain), rat; for Ki: rat brain, PN 200-110 binding sites
Excerpt: (§1) Binding Assays […] Can. Journ. Physiol. Pharmacol. 65, (1987) 1452. […] This manifests itself, for example, by comparison of the binding affinities for DHP (PN-200 110) binding sites in the rat brain and rat […]., Rutledge, A., Janis, […]., Can. Journ. Physiol. Pharmacol. 65 (1987), 1452].

[2] = biological target: T1, PN 200-110 binding sites in the rat heart (Rattus norvegicus, UniProt P22002); test: Binding affinity for PN 200-110 (DHP) binding sites in the rat heart
T1 construct: from tissue; host or cells: rat heart
Excerpt: as §1

T1 sequence (P22002 whole entry, other chains not shown): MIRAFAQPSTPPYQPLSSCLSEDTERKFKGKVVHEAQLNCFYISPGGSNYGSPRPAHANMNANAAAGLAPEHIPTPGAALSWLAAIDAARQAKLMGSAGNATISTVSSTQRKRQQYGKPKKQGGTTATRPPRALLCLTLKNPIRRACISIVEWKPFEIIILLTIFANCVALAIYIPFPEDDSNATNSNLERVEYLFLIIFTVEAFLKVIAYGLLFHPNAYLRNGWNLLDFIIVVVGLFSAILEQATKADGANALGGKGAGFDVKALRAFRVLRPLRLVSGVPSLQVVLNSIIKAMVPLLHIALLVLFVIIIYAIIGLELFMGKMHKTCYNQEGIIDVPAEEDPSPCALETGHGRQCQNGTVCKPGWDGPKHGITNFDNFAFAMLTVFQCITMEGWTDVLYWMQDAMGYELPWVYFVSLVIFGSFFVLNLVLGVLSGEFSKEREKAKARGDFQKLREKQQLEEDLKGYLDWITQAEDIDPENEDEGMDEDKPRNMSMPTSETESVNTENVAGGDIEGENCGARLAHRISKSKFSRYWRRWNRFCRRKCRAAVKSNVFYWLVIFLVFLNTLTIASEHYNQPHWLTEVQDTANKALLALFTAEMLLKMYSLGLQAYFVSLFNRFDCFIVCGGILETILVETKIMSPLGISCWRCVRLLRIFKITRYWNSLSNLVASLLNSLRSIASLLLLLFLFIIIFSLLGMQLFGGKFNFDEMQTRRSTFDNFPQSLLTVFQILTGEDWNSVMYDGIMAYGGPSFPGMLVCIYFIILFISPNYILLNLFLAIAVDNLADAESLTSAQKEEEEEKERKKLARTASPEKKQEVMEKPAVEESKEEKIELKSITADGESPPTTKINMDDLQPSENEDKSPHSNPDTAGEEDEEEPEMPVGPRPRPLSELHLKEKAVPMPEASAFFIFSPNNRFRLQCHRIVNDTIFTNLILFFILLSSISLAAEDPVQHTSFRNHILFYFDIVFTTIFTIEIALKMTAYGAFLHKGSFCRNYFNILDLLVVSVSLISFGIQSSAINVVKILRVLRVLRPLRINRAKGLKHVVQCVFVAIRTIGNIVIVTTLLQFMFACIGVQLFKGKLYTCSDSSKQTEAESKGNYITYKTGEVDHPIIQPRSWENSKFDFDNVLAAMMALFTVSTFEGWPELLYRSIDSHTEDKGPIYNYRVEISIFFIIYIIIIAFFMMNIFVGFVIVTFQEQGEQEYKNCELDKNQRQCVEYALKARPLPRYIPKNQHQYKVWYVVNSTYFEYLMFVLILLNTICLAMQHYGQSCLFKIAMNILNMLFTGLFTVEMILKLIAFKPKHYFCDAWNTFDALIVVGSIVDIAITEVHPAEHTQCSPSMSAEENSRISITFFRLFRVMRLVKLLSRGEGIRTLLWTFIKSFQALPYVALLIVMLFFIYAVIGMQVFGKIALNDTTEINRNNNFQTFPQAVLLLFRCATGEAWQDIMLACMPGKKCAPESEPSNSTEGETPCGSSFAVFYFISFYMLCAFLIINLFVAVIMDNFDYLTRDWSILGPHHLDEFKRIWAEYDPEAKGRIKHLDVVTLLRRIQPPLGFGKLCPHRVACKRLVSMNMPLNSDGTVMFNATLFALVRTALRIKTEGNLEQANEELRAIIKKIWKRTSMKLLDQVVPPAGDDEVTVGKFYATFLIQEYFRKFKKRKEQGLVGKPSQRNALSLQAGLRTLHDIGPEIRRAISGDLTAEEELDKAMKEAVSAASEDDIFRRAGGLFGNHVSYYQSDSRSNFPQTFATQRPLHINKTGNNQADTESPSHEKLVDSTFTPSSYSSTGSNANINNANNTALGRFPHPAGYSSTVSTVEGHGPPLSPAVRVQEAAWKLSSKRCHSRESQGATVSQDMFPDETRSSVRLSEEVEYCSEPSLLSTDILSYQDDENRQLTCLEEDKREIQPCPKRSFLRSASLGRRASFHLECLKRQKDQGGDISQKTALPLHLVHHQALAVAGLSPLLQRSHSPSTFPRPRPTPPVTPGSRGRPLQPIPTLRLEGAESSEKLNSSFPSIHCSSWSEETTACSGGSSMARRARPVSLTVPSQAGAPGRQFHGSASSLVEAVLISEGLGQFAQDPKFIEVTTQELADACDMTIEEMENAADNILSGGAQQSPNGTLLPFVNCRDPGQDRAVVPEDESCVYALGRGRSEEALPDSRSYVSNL
T1 sequence (P54290 25-944 partner limits assumed, other chains not shown): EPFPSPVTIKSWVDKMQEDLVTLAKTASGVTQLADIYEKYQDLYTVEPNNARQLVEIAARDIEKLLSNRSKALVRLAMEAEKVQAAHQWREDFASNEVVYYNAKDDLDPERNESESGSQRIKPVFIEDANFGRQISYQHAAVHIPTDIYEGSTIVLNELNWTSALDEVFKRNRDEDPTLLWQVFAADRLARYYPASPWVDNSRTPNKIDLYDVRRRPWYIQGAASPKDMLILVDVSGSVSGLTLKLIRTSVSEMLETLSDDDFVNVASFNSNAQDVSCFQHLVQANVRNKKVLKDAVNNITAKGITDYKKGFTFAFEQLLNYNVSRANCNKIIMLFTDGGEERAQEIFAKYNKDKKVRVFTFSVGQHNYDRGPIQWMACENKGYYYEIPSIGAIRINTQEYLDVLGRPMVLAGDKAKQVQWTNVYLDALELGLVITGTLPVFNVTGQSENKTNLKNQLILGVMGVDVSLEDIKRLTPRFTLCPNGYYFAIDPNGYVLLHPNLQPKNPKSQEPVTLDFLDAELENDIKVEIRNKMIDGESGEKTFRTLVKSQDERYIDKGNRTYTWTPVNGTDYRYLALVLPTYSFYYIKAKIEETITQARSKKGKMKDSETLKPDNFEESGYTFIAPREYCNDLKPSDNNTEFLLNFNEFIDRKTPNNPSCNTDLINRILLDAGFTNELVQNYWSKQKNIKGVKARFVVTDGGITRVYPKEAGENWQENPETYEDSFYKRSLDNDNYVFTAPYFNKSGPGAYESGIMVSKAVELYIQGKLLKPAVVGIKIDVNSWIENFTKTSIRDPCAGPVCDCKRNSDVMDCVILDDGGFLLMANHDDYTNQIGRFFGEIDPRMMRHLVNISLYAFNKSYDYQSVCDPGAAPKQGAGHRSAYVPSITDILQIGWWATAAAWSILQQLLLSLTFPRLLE
T1 sequence (P54290 945-1091 partner limits assumed, other chains not shown): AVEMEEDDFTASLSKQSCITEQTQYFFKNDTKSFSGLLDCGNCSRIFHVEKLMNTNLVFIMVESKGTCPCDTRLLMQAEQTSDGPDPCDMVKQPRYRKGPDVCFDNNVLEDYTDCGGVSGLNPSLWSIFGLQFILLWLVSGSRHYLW

| Selectivity [1] | Ki [1] | Ki [2] | SMILES |
| --- | --- | --- | --- |
| 0.44 | 32 nM |  | COC(=O)C1=C(C)NC(C)=C(C(=O)OCCN(C)Cc2ccccc2)C1c1cccc([N+](=O)[O-])c1 (stereo not shown) [Nicardipine, nicardipine] |
| 6.0 | 13 nM | 78 nM | CO[C@H](COC(=O)C1=C(C)NC(C)=C(C(=O)OC(C)C)C1c1cccc(F)c1F)c1ccccc1 (stereo partly drawn) [Example 21, isopropyl (S)-methoxy-2-phenylethyl 4-(2,3-difluorophenyl)-1,4-dihydro-2,6-dimethylpyridine-3,5-dicarboxylate] |
| 1.9 | 2.4 nM |  | COCCOC(=O)C1=C(C)NC(C)=C(C(=O)OC(C)C)C1c1cccc([N+](=O)[O-])c1 (stereo not shown) [Nimodipine, nimodipine] |
